Reference: ChEMBL document CHEMBL5608163, “Structure modification of anoplin for fighting resistant bacteria” (Eur J Med Chem, 2024)
In brackets after ≈: the same amount, converted by molar mass. Square brackets hold non-standard residues; d marks the D form. Peptide text beside a SMILES is read from it. 2Nal = N[C@@H](Cc1ccc2ccccc2c1)C(=O)O

Assays:
Bacillus subtilis [1] = test: Antibacterial activity against Bacillus subtilis ATCC 23857 assessed as reduction in bacterial growth measured after 18 to 24 hrs by CLSI protocol-based Mueller-Hinton broth dilution method; type: functional; settings: time 18-24 hrs
Escherichia coli [2] = test: Antibacterial activity against multi-drug resistant Escherichia coli clinical isolate 850 assessed as reduction in bacterial growth measured after 18 to 24 hrs by CLSI protocol-based Mueller-Hinton broth dilution method; type: functional; settings: time 18-24 hrs
Klebsiella pneumoniae = test: Antibacterial activity against Klebsiella pneumoniae ATCC 700603 assessed as reduction in bacterial growth measured after 18 to 24 hrs by CLSI protocol-based Mueller-Hinton broth dilution method; type: functional; settings: time 18-24 hrs
Pseudomonas aeruginosa [3] = test: Antibacterial activity against multi-drug resistant Pseudomonas aeruginosa clinical isolate 119 assessed as reduction in bacterial growth measured after 18 to 24 hrs by CLSI protocol-based Mueller-Hinton broth dilution method; type: functional; settings: time 18-24 hrs
Staphylococcus aureus [4] = test: Antibacterial activity against Staphylococcus aureus ATCC 25923 assessed as reduction in bacterial growth measured after 18 to 24 hrs by CLSI protocol-based Mueller-Hinton broth dilution method; type: functional; settings: time 18-24 hrs
Acinetobacter baumannii = test: Antibacterial activity against multi-drug resistant Acinetobacter baumannii clinical isolate 9840 assessed as reduction in bacterial growth measured after 18 to 24 hrs by CLSI protocol-based Mueller-Hinton broth dilution method; type: functional; settings: time 18-24 hrs
Erythrocyte = test: Hemolytic activity in erythrocytes (unknown origin); type: toxicity, cell-based
Staphylococcus aureus [5] = test: Antibacterial activity against methicillin-resistant Staphylococcus aureus ATCC 33591 assessed as reduction in bacterial growth incubated for 16 to 24 hrs by agar dilution method; type: functional; settings: time 16-24 hrs
[6] = Hemolytic activity in human RBC; type: toxicity, cell-based, Erythrocyte; settings: red blood cells
[7] = Hemolytic activity against Red blood cells (unknown origin) incubated for 1 hr by spectrophotometric analysis; type: toxicity, cell-based, Erythrocyte
Enterococcus faecium = test: Antibacterial activity against vancomycin resistant Enterococcus faecium NCTC 12204 assessed as reduction in bacterial growth by microdilution broth method; type: functional
Pseudomonas aeruginosa [8] = test: Antibacterial activity against Pseudomonas aeruginosa ATCC 15442 assessed as reduction in bacterial cell growth incubated for 18 to 24 hrs by two fold serial microdilution method; type: functional; settings: time 18-24 hrs
Escherichia coli [9] = test: Antibacterial activity against Escherichia coli ATCC 25922 assessed as reduction in bacterial growth incubated for 18 to 24 hrs by broth microdilution method; type: functional; settings: time 18-24 hrs
Escherichia coli [10] = test: Antibacterial acitivity against Escherichia coli DH5a assessed as bacterial growth inhibition incubated for 24 hrs by broth micro-dilution method; type: functional
Zymomonas mobilis = test: Antibacterial activity against Zymomonas mobilis ATCC 10988 assessed as reduction in bacterial growth incubated for 24 hrs by broth micro-dilution method; type: functional
Pseudomonas aeruginosa [11] = test: Antimicrobial activity against Pseudomonas aeruginosa assessed as inhibition of microbial growth incubated for 24 hrs by microdilution method; type: functional
Bacillus subtilis [12] = test: Antimicrobial activity against Bacillus subtilis assessed as microbial growth inhibition incubated for 24 hrs by broth micro-dilution method; type: functional
[13] = Hemolytic activity against human Red blood cells assessed as cell lysis; type: toxicity, cell-based, Erythrocyte
[14] = system: Mycolicibacterium smegmatis; test: Antimycobacterial activity against Mycobacterium smegmatis mc2 155 assessed as reduction in bacterial cell growth incubated for 24 hrs by resazurin dye based broth microdilution method; type: functional

SMILES	MIC (Bacillus subtilis [1])	MIC (Escherichia coli [2])	MIC (Klebsiella pneumoniae)	MIC (Pseudomonas aeruginosa [3])	MIC (Staphylococcus aureus [4])	MIC (Acinetobacter baumannii)	other results
CC[C@H](C)[C@H](NC(=O)[C@H](CCCNC(=N)N)NC(=O)[C@@H](CCCCN)NC(=O)[C@H](CC(C)C)NC(=O)[C@H](CC(C)C)NC(=O)CNC(C)=O)C(=O)N[C@H](CCCCN)C(=O)N[C@H](C(=O)N[C@@H](CC(C)C)C(=O)N[C@@H](CC(C)C)C(=O)NC(Cc1cn(CCCC[C@H](NC(C)=O)C(=O)NCC(=O)N[C@@H](CC(C)C)C(=O)N[C@@H](CC(C)C)C(=O)N[C@@H](CCCCN)C(=O)N[C@H](CCCNC(=N)N)C(=O)N[C@H](C(=O)N[C@H](CCCCN)C(=O)N[C@H](C(=O)N[C@@H](CC(C)C)C(=O)N[C@@H](CC(C)C)C(N)=O)[C@@H](C)O)[C@@H](C)CC)nn1)C(N)=O)[C@@H](C)O (some centres not stated)	4 µM (≈ 10.6 µg/mL)	16 µM (≈ 42.2 µg/mL)	16 µM (≈ 42.2 µg/mL)	16 µM (≈ 42.2 µg/mL)	128 µM (≈ 338 µg/mL)	8 µM (≈ 21.1 µg/mL)	
CC[C@H](C)[C@H](NC(=O)[C@H](CCCNC(=N)N)NC(=O)[C@H](CCCCN)NC(=O)[C@@H](CC(C)C)NC(=O)[C@H](CC(C)C)NC(=O)CNC(C)=O)C(=O)N[C@@H](CCCCN)C(=O)N[C@H](C(=O)N[C@H](CC(C)C)C(=O)N[C@H](CC(C)C)C(=O)NC(Cc1cn(CCCC[C@H](NC(=O)[C@H](CC(C)C)NC(=O)[C@H](CC(C)C)NC(=O)[C@@H](NC(=O)[C@@H](CCCCN)NC(=O)[C@@H](NC(=O)[C@H](CCCNC(=N)N)NC(=O)[C@@H](CCCCN)NC(=O)[C@H](CC(C)C)NC(=O)[C@H](CC(C)C)NC(=O)CNC(C)=O)[C@@H](C)CC)[C@@H](C)O)C(N)=O)nn1)C(N)=O)[C@@H](C)O (some centres not stated)	2 µM (≈ 5.28 µg/mL)	4 µM (≈ 10.6 µg/mL)	16 µM (≈ 42.2 µg/mL)	16 µM (≈ 42.2 µg/mL)	32 µM (≈ 84.5 µg/mL)	2 µM (≈ 5.28 µg/mL)	
CC[C@H](C)[C@H](NC(=O)[C@H](CCCNC(=N)N)NC(=O)[C@@H](CCCCN)NC(=O)[C@H](CC(C)C)NC(=O)[C@H](CC(C)C)NC(=O)CNC(C)=O)C(=O)N[C@H](CCCCN)C(=O)N[C@H](C(=O)N[C@@H](CC(C)C)C(=O)N[C@@H](CC(C)C)C(=O)NC(Cc1cn(CCCC[C@H](NC(=O)[C@H](CC(C)C)NC(=O)[C@H](CC(C)C)NC(=O)[C@@H](NC(=O)[C@@H](CCCCN)NC(=O)[C@@H](NC(=O)[C@@H](CCCNC(=N)N)NC(=O)[C@H](CCCCN)NC(=O)[C@H](CC(C)C)NC(=O)[C@H](CC(C)C)NC(=O)CNC(C)=O)[C@@H](C)CC)[C@@H](C)O)C(N)=O)nn1)C(N)=O)[C@@H](C)O (some centres not stated)	64 µM (≈ 169 µg/mL)	16 µM (≈ 42.2 µg/mL)	64 µM (≈ 169 µg/mL)	32 µM (≈ 84.5 µg/mL)	64 µM (≈ 169 µg/mL)	4 µM (≈ 10.6 µg/mL)	
CC[C@@H](C)[C@@H](NC(=O)[C@H](CCCNC(=N)N)NC(=O)[C@H](CCCCN)NC(=O)[C@H](CC(C)C)NC(=O)[C@H](CC1CCCCC1)NC(=O)CN)C(=O)N[C@@H](CCCCN)C(=O)N[C@H](C(=O)N[C@@H](CC(C)C)C(=O)N[C@@H](CC1CCCCC1)C(N)=O)[C@@H](C)O							HC10 (Erythrocyte): 225.6 µM
CC[C@H](C)[C@H](NC(=O)[C@H](CCCNC(=N)N)NC(=O)[C@H](CCCCN)NC(=O)[C@@H](CC(C)C)NC(=O)[C@H](CC(C)C)NC(=O)CNC(C)=O)C(=O)N[C@@H](CCCCN)C(=O)N[C@H](C(=O)N[C@H](CC(C)C)C(=O)N[C@H](CC(C)C)C(=O)NC(Cc1cn(CCCC[C@H](NC(C)=O)C(=O)NCC(=O)N[C@@H](CC(C)C)C(=O)N[C@@H](CC(C)C)C(=O)N[C@H](CCCCN)C(=O)N[C@@H](CCCNC(=N)N)C(=O)N[C@H](C(=O)N[C@H](CCCCN)C(=O)N[C@H](C(=O)N[C@@H](CC(C)C)C(=O)N[C@@H](CC(C)C)C(N)=O)[C@@H](C)O)[C@@H](C)CC)nn1)C(N)=O)[C@@H](C)O (some centres not stated)	2 µM (≈ 5.28 µg/mL)	4 µM (≈ 10.6 µg/mL)	8 µM (≈ 21.1 µg/mL)	16 µM (≈ 42.2 µg/mL)	32 µM (≈ 84.5 µg/mL)	2 µM (≈ 5.28 µg/mL)	
CC(C)C[C@H](NC(=O)[C@H](CC(C)C)NC(=O)[C@H](CCCCN)NC(=O)[C@H](CCCCN)NC(=O)[C@H](Cc1ccc2ccccc2c1)NC(=O)[C@H](CCCNC(=N)N)NC(=O)[C@H](CCCCN)NC(=O)[C@H](CC(C)C)NC(=O)[C@H](CCCCN)NC(=O)CN)C(N)=O (H-GKLKR[2Nal]KKLL-NH2)							MIC (Staphylococcus aureus [5]): 41 µM (≈ 52.5 µg/mL); HC50 [6]: 50.1 µM; HC50 at 1 h [7]: 50.1 µM; MIC (Enterococcus faecium): 13.7 µM (≈ 17.5 µg/mL); MIC (Pseudomonas aeruginosa [8]): 9.5 µM (≈ 12.2 µg/mL); MIC (Escherichia coli [9]): 9.5 µM (≈ 12.2 µg/mL)
CC[C@H](C)[C@H](NC(=O)[C@H](CCCNC(=N)N)NC(=O)[C@H](CCCCN)NC(=O)[C@H](CCCCN)NC(=O)[C@H](CC(C)C)NC(=O)CN)C(=O)N[C@@H](CCCCN)C(=O)N[C@@H](CCCCN)C(=O)N[C@@H](CC(C)C)C(=O)N[C@@H](CC(C)C)C(N)=O (H-GLKKRIKKLL-NH2)							MIC (Escherichia coli [10]): > 174 µM; MIC (Zymomonas mobilis): 12.6 µM (≈ 15.1 µg/mL); MIC (Pseudomonas aeruginosa [11]): 13 µM; MIC (Bacillus subtilis [12]): 13 µM (≈ 15.5 µg/mL); HC50 [13]: > 174 µM; MIC [14]: 13 µM (≈ 15.5 µg/mL)
